Laboratory results as given in ChEMBL document CHEMBL4052645, “Discovery of potent and efficacious pyrrolopyridazines as dual JAK1/3 inhibitors” (Bioorg Med Chem Lett, 2017).

What was measured:
[1] = target: Receptor-type tyrosine-protein kinase FLT3 (Homo sapiens) (UniProt P36888); assay: Inhibition of wild-type human partial length FLT3 (V592 to Y969 residues) expressed in bacterial expression system assessed as residual activity at 50 nM by Kinomescan method relative to control
[2] = target: Phosphatidylinositol 4,5-bisphosphate 3-kinase catalytic subunit alpha isoform (Homo sapiens) (UniProt P42336); assay: Inhibition of wild-type human partial length PI3KCA (R108 to N1068 residues) expressed in mammalian expression system assessed as residual activity at 50 nM by Kinomescan method relative to control
[3] = tested on: Phosphatidylinositol 4,5-bisphosphate 3-kinase catalytic subunit alpha isoform (Homo sapiens), P42336 [I800L]; assay: Inhibition of human partial length PI3KCA I800L mutant (R108 to N1068 residues) expressed in mammalian expression system assessed as residual activity at 50 nM by Kinomescan method relative to control
[4] = target: Serine/threonine-protein kinase D1 (Homo sapiens) (UniProt Q15139); assay: Inhibition of wild-type human partial length PKD1 (G551 to E870 residues) expressed in bacterial expression system assessed as residual activity at 50 nM by Kinomescan method relative to control
[5] = target: Wee1-like protein kinase (Homo sapiens) (UniProt P30291); assay: Inhibition of wild-type human partial length WEE1 (M291 to K575 residues) expressed in bacterial expression system assessed as residual activity at 50 nM by Kinomescan method relative to control
[6] = target: Serine/threonine-protein kinase MAK (Homo sapiens) (UniProt P20794); assay: Inhibition of wild-type human partial length MAK (M1 to P314 residues) expressed in bacterial expression system assessed as residual activity at 50 nM by Kinomescan method relative to control
[7] = target: Tyrosine-protein kinase ABL2 (Homo sapiens) (UniProt P42684); assay: Inhibition of wild-type human ARG (A248 to G542 residues) expressed in bacterial expression system assessed as residual activity at 50 nM by Kinomescan method relative to control
[8] = target: TGF-beta receptor type-1 (Homo sapiens) (UniProt P36897); assay: Inhibition of wild-type human partial length TGFBR1 (D179 to M503 residues) expressed in bacterial expression system assessed as residual activity at 50 nM by Kinomescan method relative to control
[9] = target: Serine/threonine-protein kinase ICK (Homo sapiens) (UniProt Q9UPZ9); assay: Inhibition of wild-type human partial length ICK (M1 to P314 residues) expressed in mammalian expression system assessed as residual activity at 50 nM by Kinomescan method relative to control
[10] = target: Ribosomal protein S6 kinase alpha-4 (Homo sapiens) (UniProt O75676); assay: Inhibition of wild-type human partial length C-terminal MSK2 kinase domain 2 (M375 to T705 residues) expressed in mammalian expression system assessed as residual activity at 50 nM by Kinomescan method relative to control
[11] = target: Insulin receptor (Homo sapiens) (UniProt P06213); assay: Inhibition of wild-type human partial length INSR (P997 to E1318 residues) expressed in mammalian expression system assessed as residual activity at 50 nM by Kinomescan method relative to control
[12] = target: Mitogen-activated protein kinase kinase kinase 2 (Homo sapiens) (UniProt Q9Y2U5); assay: Inhibition of wild-type human partial length MAP3K2 (S315 to H619 residues) expressed in mammalian expression system assessed as residual activity at 50 nM by Kinomescan method relative to control
[13] = target: Ribosomal protein S6 kinase alpha-6 (Homo sapiens) (UniProt Q9UK32); assay: Inhibition of wild-type human partial length C-terminal RSK4 kinase domain 2 (I401 to Y711 residues) expressed in bacterial expression system assessed as residual activity at 50 nM by Kinomescan method relative to control
[14] = target: Dual specificity testis-specific protein kinase 1 (Homo sapiens) (UniProt Q15569); assay: Inhibition of wild-type human full length TESK1 (R37 to S626 residues) expressed in bacterial expression system assessed as residual activity at 50 nM by Kinomescan method relative to control
Plasmodium falciparum = assay: Inhibition of wild-type Plasmodium falciparum full length PFB0815W (M1 to S524 residues) expressed in mammalian expression system assessed as residual activity at 50 nM by Kinomescan method relative to control
[15] = target: ALK tyrosine kinase receptor (Homo sapiens) (UniProt Q9UM73); assay: Inhibition of wild-type human partial length ALK (I1088 to E1409 residues) expressed in mammalian expression system assessed as residual activity at 50 nM by Kinomescan method relative to control
[16] = target: Vascular endothelial growth factor receptor 2 (Homo sapiens) (UniProt P35968); assay: Inhibition of wild-type human partial length KDR (R787 to P1253 residues) expressed in mammalian expression system assessed as residual activity at 50 nM by Kinomescan method relative to control
[17] = target: cAMP-dependent protein kinase catalytic subunit alpha (Homo sapiens) (UniProt P17612); assay: Inhibition of wild-type human partial length PKACA (G10 to F351 residues) expressed in bacterial expression system assessed as residual activity at 50 nM by Kinomescan method relative to control
[18] = target: Dual specificity protein kinase CLK1 (Homo sapiens) (UniProt P49759); assay: Inhibition of wild-type human full length CLK1 (M1 to I484 residues) expressed in bacterial expression system assessed as residual activity at 50 nM by Kinomescan method relative to control
[19] = target: Serine/threonine-protein kinase tousled-like 2 (Homo sapiens) (UniProt Q86UE8); assay: Inhibition of wild-type human partial length TLK2 (E424 to N749 residues) expressed in bacterial expression system assessed as residual activity at 50 nM by Kinomescan method relative to control
[20] = target: Death-associated protein kinase 2 (Homo sapiens) (UniProt Q9UIK4); assay: Inhibition of wild-type human full length DAPK2 (M1 to S370 residues) expressed in bacterial expression system assessed as residual activity at 50 nM by Kinomescan method relative to control
[21] = target: Hepatocyte growth factor receptor (Homo sapiens) (UniProt P08581); assay: Inhibition of wild-type human partial length MET (D1010 to S1367 residues) expressed in bacterial expression system assessed as residual activity at 50 nM by Kinomescan method relative to control
[22] = target: Serine/threonine-protein kinase TAO2 (Homo sapiens) (UniProt Q9UL54); assay: Inhibition of wild-type human partial length TAO2 (M1 to A320 residues) expressed in mammalian expression system assessed as residual activity at 50 nM by Kinomescan method relative to control
[23] = target: Ephrin type-A receptor 8 (Homo sapiens) (UniProt P29322); assay: Inhibition of wild-type human partial length EPHA8 (Q608 to C920 residues) expressed in bacterial expression system assessed as residual activity at 50 nM by Kinomescan method relative to control
[24] = target: Cyclin-dependent kinase 2 (Homo sapiens) (UniProt P24941); assay: Inhibition of wild-type human full length CDK2 (M1 to L298 residues) expressed in bacterial expression system assessed as residual activity at 50 nM by Kinomescan method relative to control

Chain of Phosphatidylinositol 4,5-bisphosphate 3-kinase catalytic subunit alpha isoform (Homo sapiens) (P42336 whole entry, the tested form may be a part, canonical isoform): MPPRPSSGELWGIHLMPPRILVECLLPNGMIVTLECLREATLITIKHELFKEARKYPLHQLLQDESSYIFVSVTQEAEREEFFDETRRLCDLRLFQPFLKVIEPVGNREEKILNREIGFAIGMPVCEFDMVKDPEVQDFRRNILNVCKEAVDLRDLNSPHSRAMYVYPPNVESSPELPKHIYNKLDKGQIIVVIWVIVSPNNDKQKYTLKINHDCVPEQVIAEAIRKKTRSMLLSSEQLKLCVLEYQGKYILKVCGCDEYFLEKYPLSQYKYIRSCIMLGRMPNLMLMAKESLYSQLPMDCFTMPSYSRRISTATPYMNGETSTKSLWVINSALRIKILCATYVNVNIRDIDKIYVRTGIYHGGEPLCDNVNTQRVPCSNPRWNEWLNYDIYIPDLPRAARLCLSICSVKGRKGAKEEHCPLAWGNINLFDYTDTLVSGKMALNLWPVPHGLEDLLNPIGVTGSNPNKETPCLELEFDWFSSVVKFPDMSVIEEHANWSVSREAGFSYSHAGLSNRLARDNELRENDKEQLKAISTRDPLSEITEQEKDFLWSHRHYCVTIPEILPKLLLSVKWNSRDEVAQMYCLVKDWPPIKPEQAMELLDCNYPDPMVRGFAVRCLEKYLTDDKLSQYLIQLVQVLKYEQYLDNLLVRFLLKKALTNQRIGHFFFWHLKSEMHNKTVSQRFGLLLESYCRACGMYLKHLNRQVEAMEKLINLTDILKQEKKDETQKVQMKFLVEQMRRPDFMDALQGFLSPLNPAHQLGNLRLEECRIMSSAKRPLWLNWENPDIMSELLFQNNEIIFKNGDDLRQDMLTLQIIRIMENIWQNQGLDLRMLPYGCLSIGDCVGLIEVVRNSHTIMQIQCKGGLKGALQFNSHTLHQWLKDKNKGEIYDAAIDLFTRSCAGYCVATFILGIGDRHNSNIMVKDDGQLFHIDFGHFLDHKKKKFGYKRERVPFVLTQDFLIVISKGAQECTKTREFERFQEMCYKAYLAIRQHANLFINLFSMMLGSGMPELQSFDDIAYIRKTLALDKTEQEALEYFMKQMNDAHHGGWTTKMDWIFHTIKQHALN
Chain of Hepatocyte growth factor receptor (Homo sapiens) (P08581 whole entry, the tested form may be a part): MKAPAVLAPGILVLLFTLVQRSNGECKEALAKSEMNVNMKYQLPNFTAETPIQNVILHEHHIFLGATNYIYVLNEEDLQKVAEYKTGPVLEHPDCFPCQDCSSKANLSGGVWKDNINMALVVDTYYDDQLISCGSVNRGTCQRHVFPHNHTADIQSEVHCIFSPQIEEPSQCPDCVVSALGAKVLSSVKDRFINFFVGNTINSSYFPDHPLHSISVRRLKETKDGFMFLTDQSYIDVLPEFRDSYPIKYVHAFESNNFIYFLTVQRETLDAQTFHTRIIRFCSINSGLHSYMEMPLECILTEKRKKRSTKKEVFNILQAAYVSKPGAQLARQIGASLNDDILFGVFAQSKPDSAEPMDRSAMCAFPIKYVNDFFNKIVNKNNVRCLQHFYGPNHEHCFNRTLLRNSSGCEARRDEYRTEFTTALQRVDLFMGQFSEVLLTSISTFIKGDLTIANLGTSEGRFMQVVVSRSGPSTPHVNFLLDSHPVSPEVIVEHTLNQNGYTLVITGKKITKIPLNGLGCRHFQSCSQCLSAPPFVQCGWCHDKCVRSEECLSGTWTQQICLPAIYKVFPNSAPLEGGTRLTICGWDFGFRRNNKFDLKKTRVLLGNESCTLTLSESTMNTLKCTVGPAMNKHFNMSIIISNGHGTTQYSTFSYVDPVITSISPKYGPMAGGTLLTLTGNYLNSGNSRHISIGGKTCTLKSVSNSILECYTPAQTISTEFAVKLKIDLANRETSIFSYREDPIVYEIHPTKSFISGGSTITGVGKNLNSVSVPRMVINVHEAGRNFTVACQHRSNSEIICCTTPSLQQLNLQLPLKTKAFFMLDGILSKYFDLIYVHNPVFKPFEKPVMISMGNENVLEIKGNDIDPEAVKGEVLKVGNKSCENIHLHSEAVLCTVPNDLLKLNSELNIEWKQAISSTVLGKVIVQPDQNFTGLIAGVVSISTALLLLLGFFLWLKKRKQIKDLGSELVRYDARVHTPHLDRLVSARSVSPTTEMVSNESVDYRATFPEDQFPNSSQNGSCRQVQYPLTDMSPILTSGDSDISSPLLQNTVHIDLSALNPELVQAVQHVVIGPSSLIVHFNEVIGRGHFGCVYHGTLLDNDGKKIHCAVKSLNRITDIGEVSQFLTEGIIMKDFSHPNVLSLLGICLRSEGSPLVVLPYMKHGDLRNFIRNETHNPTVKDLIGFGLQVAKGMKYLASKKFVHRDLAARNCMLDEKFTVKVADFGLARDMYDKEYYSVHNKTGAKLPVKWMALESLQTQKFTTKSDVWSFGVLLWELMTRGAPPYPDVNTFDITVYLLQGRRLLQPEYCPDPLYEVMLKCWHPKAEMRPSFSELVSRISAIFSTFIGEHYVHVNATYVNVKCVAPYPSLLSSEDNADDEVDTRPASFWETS
Chain of Mitogen-activated protein kinase kinase kinase 2 (Homo sapiens) (Q9Y2U5 whole entry, the tested form may be a part): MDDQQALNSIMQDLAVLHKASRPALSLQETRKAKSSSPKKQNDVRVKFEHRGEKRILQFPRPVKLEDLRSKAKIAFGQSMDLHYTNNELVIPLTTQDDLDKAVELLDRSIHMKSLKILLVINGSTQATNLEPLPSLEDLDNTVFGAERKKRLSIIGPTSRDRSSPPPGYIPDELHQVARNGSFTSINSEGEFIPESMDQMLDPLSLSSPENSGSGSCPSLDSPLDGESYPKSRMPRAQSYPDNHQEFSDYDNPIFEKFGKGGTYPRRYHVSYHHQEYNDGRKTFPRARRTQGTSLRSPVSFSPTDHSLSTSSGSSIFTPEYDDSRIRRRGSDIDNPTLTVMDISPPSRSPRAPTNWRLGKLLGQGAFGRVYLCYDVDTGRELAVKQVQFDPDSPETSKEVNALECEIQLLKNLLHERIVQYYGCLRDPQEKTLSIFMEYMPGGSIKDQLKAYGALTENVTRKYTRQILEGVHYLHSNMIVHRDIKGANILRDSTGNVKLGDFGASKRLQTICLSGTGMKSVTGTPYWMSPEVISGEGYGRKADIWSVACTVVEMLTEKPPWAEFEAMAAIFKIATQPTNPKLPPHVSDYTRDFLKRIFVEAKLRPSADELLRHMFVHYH
Chain of Serine/threonine-protein kinase MAK (Homo sapiens) (P20794 whole entry, the tested form may be a part): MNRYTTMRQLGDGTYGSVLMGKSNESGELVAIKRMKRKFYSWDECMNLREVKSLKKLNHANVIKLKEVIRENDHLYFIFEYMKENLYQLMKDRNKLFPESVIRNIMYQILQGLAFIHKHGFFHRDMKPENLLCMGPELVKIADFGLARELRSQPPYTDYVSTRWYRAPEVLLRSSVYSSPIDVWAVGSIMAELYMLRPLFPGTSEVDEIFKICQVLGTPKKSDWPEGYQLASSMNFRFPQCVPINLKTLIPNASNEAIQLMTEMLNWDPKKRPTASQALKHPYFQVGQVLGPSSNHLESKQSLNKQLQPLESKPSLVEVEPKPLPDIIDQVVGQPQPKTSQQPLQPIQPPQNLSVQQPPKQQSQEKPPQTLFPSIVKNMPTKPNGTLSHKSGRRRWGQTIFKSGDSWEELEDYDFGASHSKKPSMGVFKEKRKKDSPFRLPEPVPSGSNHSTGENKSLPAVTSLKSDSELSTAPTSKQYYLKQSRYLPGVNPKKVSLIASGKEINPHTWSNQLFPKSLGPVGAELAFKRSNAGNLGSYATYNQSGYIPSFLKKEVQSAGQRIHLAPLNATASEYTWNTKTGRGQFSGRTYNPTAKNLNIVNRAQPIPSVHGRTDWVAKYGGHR
Chain of TGF-beta receptor type-1 (Homo sapiens) (P36897 whole entry, the tested form may be a part): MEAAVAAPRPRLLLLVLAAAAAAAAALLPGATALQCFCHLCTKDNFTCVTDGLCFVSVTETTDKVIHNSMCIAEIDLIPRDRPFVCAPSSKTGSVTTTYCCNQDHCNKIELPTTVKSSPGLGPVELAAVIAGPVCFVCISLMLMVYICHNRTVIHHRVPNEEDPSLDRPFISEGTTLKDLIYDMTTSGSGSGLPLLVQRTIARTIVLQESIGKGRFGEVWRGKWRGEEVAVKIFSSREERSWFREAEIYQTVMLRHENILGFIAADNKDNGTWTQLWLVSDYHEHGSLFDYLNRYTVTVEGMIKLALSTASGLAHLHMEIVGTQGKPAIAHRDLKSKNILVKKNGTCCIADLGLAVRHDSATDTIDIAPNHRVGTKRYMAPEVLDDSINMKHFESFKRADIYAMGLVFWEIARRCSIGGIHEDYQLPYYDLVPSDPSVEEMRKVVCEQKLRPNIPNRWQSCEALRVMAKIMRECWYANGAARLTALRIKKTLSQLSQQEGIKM
Chain of Serine/threonine-protein kinase tousled-like 2 (Homo sapiens) (Q86UE8 whole entry, looked up, the tested form may be a part): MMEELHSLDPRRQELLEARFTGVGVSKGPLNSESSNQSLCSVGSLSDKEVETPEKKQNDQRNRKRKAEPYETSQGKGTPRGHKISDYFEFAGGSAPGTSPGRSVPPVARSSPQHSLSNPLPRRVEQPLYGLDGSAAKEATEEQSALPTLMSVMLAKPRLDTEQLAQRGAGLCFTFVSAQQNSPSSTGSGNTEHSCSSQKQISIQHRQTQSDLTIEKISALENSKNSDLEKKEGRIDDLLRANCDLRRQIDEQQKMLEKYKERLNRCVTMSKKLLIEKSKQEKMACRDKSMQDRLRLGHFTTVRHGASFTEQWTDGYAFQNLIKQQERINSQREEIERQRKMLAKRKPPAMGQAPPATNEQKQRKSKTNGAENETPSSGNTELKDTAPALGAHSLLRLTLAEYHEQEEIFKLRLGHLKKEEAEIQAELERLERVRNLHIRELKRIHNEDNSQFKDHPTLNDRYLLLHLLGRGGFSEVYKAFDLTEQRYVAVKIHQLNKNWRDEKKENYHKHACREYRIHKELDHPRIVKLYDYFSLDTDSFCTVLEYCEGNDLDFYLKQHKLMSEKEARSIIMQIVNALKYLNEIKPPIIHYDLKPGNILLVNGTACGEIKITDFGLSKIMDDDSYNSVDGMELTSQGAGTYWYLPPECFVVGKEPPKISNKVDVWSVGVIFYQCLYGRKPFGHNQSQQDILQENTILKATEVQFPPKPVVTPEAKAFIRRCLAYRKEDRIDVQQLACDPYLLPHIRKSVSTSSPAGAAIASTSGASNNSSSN

SMILES	Activity [1] [%]	Activity [2] [%]	Activity [3] [%]	Activity [4] [%]	Activity [5] [%]	Activity [6] [%]	Activity [7] [%]	Activity [8] [%]	Activity [9] [%]	Activity [10] [%]	Activity [11] [%]	Activity [12] [%]	Activity [13] [%]	Activity [14] [%]	Activity (Plasmodium falciparum) [%]	Activity [15] [%]	Activity [16] [%]	Activity [17] [%]	Activity [18] [%]	Activity [19] [%]	other results
COc1ccc(-c2cc3c(N[C@@H]4CC[C@](C)(N)C4(C)C)c(C(N)=O)cnn3c2)cn1	90	100	100	96	100	100	91	95	100	100	72	46	96	84	100	94	88	100	97	98	Activity [20]: 92%; Activity [21]: 87%; Activity [22]: 81%; Activity [23]: 100%; Activity [24]: 88%
CC1(C)[C@H](Nc2c(C(N)=O)cnn3cc(-c4ccccc4)cc23)CC[C@]1(C)N	72	100	100	100	97	100	91	100	64	98	94	30	50	100	67	100	100	100	100	96	Activity [20]: 71%; Activity [21]: 88%; Activity [22]: 72%; Activity [23]: 100%; Activity [24]: 100%
